Literature values, collected in patent US9968555B2, “Liposomal formulations that form drug nanocrystals after freeze-thaw” (ARADIGM CORPORATION, priority 2014, dated 2018).
Values after ≈ are worked out from the molar mass of the structure shown.

System: M. avium

**Q.** For `O=C(O)c1cn(C2CC2)c2cc(N3CCNCC3)c(F)cc2c1=O` [ciprofloxacin], which “minimum inhibitory concentration (MIC)” value is on record?
**A.** 5 µg/mL (≈ 15.1 µM)
